How the values were obtained:
wild type RET = wild type RET (Homo sapiens (Human), UniProt P07949); assay: RET Wild Type Assay at KM (Caliper electrophoretic mobility shift); format: biochemical; conditions: 25 μM ATP, 25° C., 120 minutes
RET V804L = RET V804L (Homo sapiens (Human), UniProt P07949, V804L); assay: RET V804L Gatekeeper Mutant Assay at KM (Caliper electrophoretic mobility shift); format: biochemical; conditions: 10 μM ATP, 25° C., 120 minutes
RET V804L, sequence (P07949 658-1114 V804L): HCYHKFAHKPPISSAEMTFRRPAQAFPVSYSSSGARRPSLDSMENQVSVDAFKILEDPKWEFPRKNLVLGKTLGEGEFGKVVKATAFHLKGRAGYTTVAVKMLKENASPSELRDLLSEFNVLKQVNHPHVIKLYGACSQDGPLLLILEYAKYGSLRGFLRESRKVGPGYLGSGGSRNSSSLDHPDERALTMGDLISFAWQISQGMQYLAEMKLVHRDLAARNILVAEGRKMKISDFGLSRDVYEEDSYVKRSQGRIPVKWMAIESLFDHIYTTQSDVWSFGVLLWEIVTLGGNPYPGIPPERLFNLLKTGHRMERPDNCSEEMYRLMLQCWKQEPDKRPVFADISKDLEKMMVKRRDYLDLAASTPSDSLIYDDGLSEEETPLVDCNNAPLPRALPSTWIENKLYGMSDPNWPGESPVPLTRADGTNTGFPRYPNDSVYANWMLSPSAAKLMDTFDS

wild type RET, sequence (P07949 658-1114): as the sequence (P07949 658-1114 V804L) above, with L147V counted along it

| IC50 (wild type RET) | IC50 (RET V804L) | SMILES |
| --- | --- | --- |
| > 100 nM | > 100 nM | Cc1cc(Nc2cc(C)[nH]n2)nc([C@H]2CC[C@@H](C(=O)NCc3ccc(-n4cccn4)nc3)CC2)n1 [Compound 100] |
| < 10 nM | < 10 nM | Cc1cc(Nc2cc(C)[nH]n2)nc([C@H]2CC[C@H](C(=O)NCc3ccc(-n4cccn4)nc3)CC2)n1 [Compound 101] |
| > 100 nM | > 100 nM | Cc1cc(Nc2cc(C)[nH]n2)nc([C@H]2CC[C@@H](C(=O)N[C@@H](C)c3ccc(-n4cccn4)nc3)CC2)n1 [Compound 102] |
| < 10 nM | < 10 nM | Cc1cc(Nc2cc(C)[nH]n2)nc([C@H]2CC[C@H](C(=O)N[C@@H](C)c3ccc(-n4cccn4)nc3)CC2)n1 [Compound 103] |
| > 100 nM | > 100 nM | Cc1cc(Nc2cc(C)[nH]n2)nc([C@@H]2CC[C@@H](C(=O)NCc3ccc(-n4cccn4)nc3)[C@@H](C)C2)n1 [Compound 104] |
| < 10 nM | 10 to 100 nM | Cc1cc(Nc2cc(C)[nH]n2)nc([C@H]2CC[C@H](C(=O)NCc3ccc(-n4nc(C)cc4C)nc3)CC2)n1 [Compound 106] |
| < 10 nM | < 10 nM | Cc1cc(Nc2cc(C)[nH]n2)nc([C@@]2(O)CC[C@H](C(=O)NCc3ccc(-n4cccn4)nc3)[C@H](C)C2)c1 [Compound 107] |
| < 10 nM | < 10 nM | Cc1cc(Nc2cc(C)[nH]n2)nc([C@H]2CC[C@H](C(=O)NCc3ccc(-n4cc(Cl)cn4)nc3)CC2)n1 [Compound 113] |
| < 10 nM | < 10 nM | Cc1cc(Nc2cc(C)[nH]n2)nc([C@]2(O)CC[C@@H](C(=O)NCc3ccc(-n4cccn4)nc3)C(C)(C)C2)c1 [Compound 114] |
| > 100 nM | 10 to 100 nM | Cc1cc(Nc2cc(C)[nH]n2)nc([C@@H]2CC[C@@H](C(=O)N[C@@H](C)c3ccc(-n4cc(F)cn4)nc3)[C@@H](C)C2)n1 [Compound 116] |
| > 100 nM | > 100 nM | Cc1cc(Nc2cc(C)[nH]n2)nc([C@]2(O)CC[C@H](C(=O)N[C@@H](C)c3ccc(-n4cc(F)cn4)nc3)CC2)c1 [Compound 119] |
| < 10 nM | < 10 nM | Cc1cc(Nc2cc(C)[nH]n2)nc([C@]2(O)CC[C@@H](C(=O)N[C@@H](C)c3ccc(-n4cc(F)cn4)nc3)CC2)c1 [Compound 120, (1s,4R)—N—((S)-1-(6-(4-fluoro-1H-pyrazol-1-yl)pyridin-3-yl)ethyl)-4-hydroxy-4-(4-methyl-6-(5-methyl-1H-pyrazol-3-ylamino)pyridin-2-yl)cyclohexanecarboxamide] |
| > 100 nM | 10 to 100 nM | Cc1cc(Nc2cc(C)[nH]n2)nc([C@@H]2CC[C@@H](C(=O)N[C@@H](C)c3ccc(-n4cc(F)cn4)nc3)C(C)(C)C2)n1 [Compound 124] |
| < 10 nM | < 10 nM | CO[C@]1(C(=O)N[C@@H](C)c2cnc(-n3cc(F)cn3)cn2)CC[C@H](c2nc(C)cc(Nc3cc(C)[nH]n3)n2)CC1 [Compound 131] |
| < 10 nM | < 10 nM | CCO[C@]1(C(=O)N[C@@H](C)c2ccc(-n3cc(F)cn3)nc2)CC[C@H](c2nc(C)cc(Nc3cc(C)[nH]n3)n2)CC1 [Compound 136] |
| > 100 nM | > 100 nM | CO[C@]1(C(=O)N[C@@H](C)c2ccc(-n3cc(F)cn3)nc2)CC[C@](O)(c2cc(C)cc(Nc3cc(C)[nH]n3)n2)CC1 [Compound 137] |
| < 10 nM | < 10 nM | CO[C@]1(C(=O)N[C@@H](C)c2ccc(-n3cc(F)cn3)nc2)CC[C@@](O)(c2cc(C)cc(Nc3cc(C)[nH]n3)n2)CC1 [Compound 138] |
| < 10 nM | < 10 nM | Cc1cc(Nc2cc(C)[nH]n2)nc(C2=CCC(C(=O)N[C@@H](C)c3ccc(-n4cc(F)cn4)nc3)CC2)n1 (stereo partly shown) [Compound 144] |
| < 10 nM | < 10 nM | Cc1cc(Nc2cc(C)[nH]n2)nc([C@]2(O)CC[C@@H](C(=O)N[C@@H](C)c3ccc(-n4cc(F)cn4)nc3)OC2)c1 [Compound 146] |
| < 10 nM | < 10 nM | CO[C@]1(C(=O)NCc2cnc(-n3cc(F)cn3)cn2)CC[C@H](c2nc(C)cc(Nc3cc(C)[nH]n3)n2)CC1 [Compound 150] |

From patent US10584114B2, “Inhibitors of RET” (BLUEPRINT MEDICINES CORPORATION, priority 2015, dated 2020)
